From article PMC4595200 (BMC Plant Biology, 2015)

Biological target: T1, truncated AtAPC2 (N-terminally truncated AtAPC2) (Arabidopsis thaliana, UniProt Q9FI43)
T1 construct: gene APC2; transmembrane carrier domain from residue 164 to C-terminus, EF-hand N-terminal domain removed, N-terminal His tag (pET16b), E. coli Rosetta 2 inclusion bodies, reconstituted in liposomes
T1 sequence (Q9FI43 164-487): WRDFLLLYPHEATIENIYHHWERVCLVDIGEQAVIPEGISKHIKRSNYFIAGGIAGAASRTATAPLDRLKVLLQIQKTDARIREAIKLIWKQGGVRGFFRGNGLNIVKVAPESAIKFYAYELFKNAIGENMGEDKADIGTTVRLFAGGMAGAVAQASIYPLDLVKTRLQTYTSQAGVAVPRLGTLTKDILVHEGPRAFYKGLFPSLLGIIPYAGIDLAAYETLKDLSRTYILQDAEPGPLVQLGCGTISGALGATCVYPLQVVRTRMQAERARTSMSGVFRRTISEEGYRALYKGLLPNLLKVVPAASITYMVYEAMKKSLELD
Assay: radiolabelled uptake into proteoliposomes
Type: biochemical
Details: pH 7.5, 30 °C, labelled compound

## Nc1ncnc2c1ncn2[C@@H]1O[C@H](COP(=O)(O)OP(=O)(O)O)[C@@H](O)[C@H]1O [ADP]
ADP import / ATP export (ATP-loaded), 5 min
  radiolabelled uptake into proteoliposomes: ADP/ATP exchange of both, full-length and truncated, AtAPC2 variants remained more or less unaltered

## Nc1ncnc2c1ncn2[C@@H]1O[C@H](COP(=O)(O)OP(=O)(O)OP(=O)(O)O)[C@@H](O)[C@H]1O [ATP]
ATP import / Pi export (Pi-loaded), 50 μM ATP
  radiolabelled uptake into proteoliposomes: ATP uptake measurements verified that truncated AtAPC2 is functional
